The values that follow come from paper PMC6567057, “Pharmacokinetic, metabolic stability, plasma protein binding and CYP450s inhibition/induction assessment studies of N-(2-pyridylmethyl)-2-hydroxiymethyl-1-pyrrolidinyl-4-(3-chloro-4-methoxy-benzylamino)-5-pyrimidine-carboxamide as potential type 5 phosphodiesterase inhibitors” (Animal Cells and Systems, 2019).

The structures appear in SMILES notation. Like-named read-outs stand apart in the source and are kept apart here.

One series has as its target T1, CYP2D6 (Homo sapiens, UniProt P10635).
T1 construct: tissue BD Gentest; host or cells: pooled human liver microsomes
As to the kind of experiment: CYP isozyme inhibition in human liver microsomes. In kind it is in vitro ADME. To be noted: calculated from inhibition at 3 μM. The method, then:
(§1) The stock solutions of the probe substrates phenacetin (20.0 mM), diclofenac (20.0 mM), S-mephenytoin (30 mM), dextromethorphan (10.0 mM), midazolam (10.00 mM) and testosterone (50.0 mM) were prepared using methanol, while α-Naphtoflavone (3.0 mM), sulfaphenazole (3.0 mM), N-3-benzylnirvanol (3.0 mM), quinidine (3.0 mM), ketoconazole (3.0 mM) and NHPPC (10.0 mM) were prepared using DMSO, and diluted with phosphate buffer (PB, 100 mM, pH 7.4) before added into the incubation system. The organic solvents in the final incubate were no more than 0.20%. The incubation medium was 100 mM phosphate buffered saline, and the final incubation volume was 200 μL containing 25 pmol/mL human liver microsomes CYP enzyme, probe substrate, 1 mM NADPH and NHPPC at 3.00 μM. The reactions were initiated after 5 min pre-incubation at 37°C and were terminated by the addition of 400 μL ice-cold acetonitrile. All incubations were conducted in triplicate, and the samples were stored at −80°C until analysis. Calculation of IC50 was performed by using following equations, where C is concentration of test compounds.

The target of another series is T2, CYP2C9 (Homo sapiens, UniProt P11712).
T2 construct: tissue BD Gentest; host or cells: pooled human liver microsomes
The series can be described thus: CYP isozyme inhibition in human liver microsomes. In kind it is in vitro ADME. To be noted: calculated from inhibition at 3 μM. The method, then:
as §1

The target of the next series is T3, CYP2C19 (Homo sapiens, UniProt P33261).
T3 construct: tissue BD Gentest; host or cells: pooled human liver microsomes
As to the kind of experiment: CYP isozyme inhibition in human liver microsomes. The conditions noted are these: calculated from inhibition at 3 μM. The format is in vitro ADME. The method, then:
as §1

Another series addresses T4, CYP1A2 (Homo sapiens, UniProt P05177).
T4 construct: tissue BD Gentest; host or cells: pooled human liver microsomes
T4 sequence (P05177 1-516): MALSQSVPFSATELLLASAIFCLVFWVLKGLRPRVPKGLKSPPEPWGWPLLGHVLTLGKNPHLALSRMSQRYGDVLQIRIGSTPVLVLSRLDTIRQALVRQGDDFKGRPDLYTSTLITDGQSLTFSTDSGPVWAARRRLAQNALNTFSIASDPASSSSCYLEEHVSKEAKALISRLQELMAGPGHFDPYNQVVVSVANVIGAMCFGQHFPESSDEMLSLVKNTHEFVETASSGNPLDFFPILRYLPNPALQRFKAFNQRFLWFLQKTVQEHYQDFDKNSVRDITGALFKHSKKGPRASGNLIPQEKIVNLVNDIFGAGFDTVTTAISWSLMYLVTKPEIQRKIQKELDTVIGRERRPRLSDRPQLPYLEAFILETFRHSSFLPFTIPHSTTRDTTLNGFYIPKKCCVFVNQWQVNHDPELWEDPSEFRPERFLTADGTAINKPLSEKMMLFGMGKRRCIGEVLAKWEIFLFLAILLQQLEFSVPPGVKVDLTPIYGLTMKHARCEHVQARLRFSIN
The series can be described thus: CYP isozyme inhibition in human liver microsomes. In kind it is in vitro ADME. The conditions noted are these: calculated from inhibition at 3 μM. The method, then:
as §1

For a further series, the target named is T5, CYP3A4 (Homo sapiens, UniProt P08684).
T5 construct: tissue BD Gentest; host or cells: pooled human liver microsomes
The series can be described thus: CYP isozyme inhibition in human liver microsomes. The format is in vitro ADME. The conditions noted are these: calculated from inhibition at 3 μM. The procedure: as §1

The nature of series [1]: In vivo pharmacokinetic study in rats. The conditions noted are these: rat; for MRT inf: read-out: MRT0-∞. Also noted: species or system male Sprague–Dawley rats. The method, then: For the iv experiment, male SD rats (n = 3) were given a single dose of NHPPC (1 mg/kg) over 1 min by dorsal venous arch of foot. Approximately 200 µL blood samples were collected at 5, 15, 30 min and 1, 2, 4, 6, 8 and 24 h post-dose via tail vein into heparinized (coated with 0.1% heparin in saline) tubes. For the oral experiments, the male rats (n = 3) were given a single dose of 2 mg/kg. Then the blood samples were collected at 10, 30 min and 1, 2, 4, 6, 8 and 24 h post-dose. Plasma was obtained after centrifugation at 8000 rpm for 6 min (4°C) within 10 min of blood-drawing and stored at –70°C until they were analyzed.
Data analysis including analyte/IS was acquired using Analyst version 1.6.1 software (AB SCIEX). All pharmacokinetic parameters (for example: K10, AUC0–t, AUC0-∞, Cmax, Tmax, t1/2, CL, Vss, MRT0–∞, etc.) were analyzed based on a non-compartmental model and using Pharsight WinNonlin version 6.3 (St. Louis, USA). The area under the concentration time curve (AUC0–t and AUC0–∞) was calculated by linear trapezoidal rule. The natural logarithms (Ln) of the fraction remaining against incubation times (min) was plotted and the first-order rate constant of turnover is determined by a linear regression model. The final results (for example: the mean, standard deviation, the remaining, device recovery, ke, bioavailability, etc.) were electronically exported into Excel 7.0 (Redmond, USA) for data processing and formatting.

The mark [2] stands for this setting: male, Sprague-Dawley, plasma, IV 1 mg/kg.
The mark [3] stands for this setting: male, Sprague-Dawley, plasma, PO 2 mg/kg.

T5 sequence (P08684 whole entry): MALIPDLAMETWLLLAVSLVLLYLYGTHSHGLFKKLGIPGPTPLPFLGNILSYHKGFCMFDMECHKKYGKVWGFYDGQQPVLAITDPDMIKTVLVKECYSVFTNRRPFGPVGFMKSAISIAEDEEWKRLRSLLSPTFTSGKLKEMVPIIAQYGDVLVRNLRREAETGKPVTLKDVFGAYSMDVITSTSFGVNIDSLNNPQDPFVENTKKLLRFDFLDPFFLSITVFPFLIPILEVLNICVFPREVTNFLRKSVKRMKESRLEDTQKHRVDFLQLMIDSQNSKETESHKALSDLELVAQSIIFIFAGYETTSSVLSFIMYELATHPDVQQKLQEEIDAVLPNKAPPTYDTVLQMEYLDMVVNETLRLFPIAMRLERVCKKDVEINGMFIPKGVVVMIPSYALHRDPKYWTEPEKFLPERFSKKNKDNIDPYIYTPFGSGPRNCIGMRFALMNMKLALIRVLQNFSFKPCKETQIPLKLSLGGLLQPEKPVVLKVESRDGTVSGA
T1 sequence (P10635 whole entry): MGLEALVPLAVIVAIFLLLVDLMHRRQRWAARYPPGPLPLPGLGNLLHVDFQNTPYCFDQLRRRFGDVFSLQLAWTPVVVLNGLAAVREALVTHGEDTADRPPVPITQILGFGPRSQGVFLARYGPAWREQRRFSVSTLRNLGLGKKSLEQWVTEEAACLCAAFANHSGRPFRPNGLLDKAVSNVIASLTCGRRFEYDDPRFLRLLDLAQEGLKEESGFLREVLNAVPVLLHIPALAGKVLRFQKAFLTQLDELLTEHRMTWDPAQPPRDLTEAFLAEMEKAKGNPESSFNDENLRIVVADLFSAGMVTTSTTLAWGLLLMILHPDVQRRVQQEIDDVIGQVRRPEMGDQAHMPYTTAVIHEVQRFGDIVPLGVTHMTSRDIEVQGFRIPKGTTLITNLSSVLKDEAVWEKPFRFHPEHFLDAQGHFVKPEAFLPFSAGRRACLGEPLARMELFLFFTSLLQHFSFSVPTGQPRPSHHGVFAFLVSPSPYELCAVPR
T2 sequence (P11712 whole entry): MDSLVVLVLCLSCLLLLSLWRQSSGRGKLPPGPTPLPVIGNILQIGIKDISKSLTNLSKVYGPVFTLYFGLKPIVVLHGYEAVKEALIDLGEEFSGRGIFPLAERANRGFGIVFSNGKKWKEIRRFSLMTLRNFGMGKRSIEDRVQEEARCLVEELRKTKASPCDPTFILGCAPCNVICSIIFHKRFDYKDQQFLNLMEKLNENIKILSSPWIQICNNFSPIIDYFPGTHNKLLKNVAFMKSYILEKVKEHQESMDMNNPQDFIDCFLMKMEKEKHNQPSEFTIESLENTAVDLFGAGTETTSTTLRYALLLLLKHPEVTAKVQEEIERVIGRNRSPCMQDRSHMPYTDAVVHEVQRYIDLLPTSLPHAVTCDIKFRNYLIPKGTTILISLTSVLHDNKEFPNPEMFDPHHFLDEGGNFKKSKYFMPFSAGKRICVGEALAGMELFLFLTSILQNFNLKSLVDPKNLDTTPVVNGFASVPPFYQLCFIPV
T3 sequence (P33261 whole entry): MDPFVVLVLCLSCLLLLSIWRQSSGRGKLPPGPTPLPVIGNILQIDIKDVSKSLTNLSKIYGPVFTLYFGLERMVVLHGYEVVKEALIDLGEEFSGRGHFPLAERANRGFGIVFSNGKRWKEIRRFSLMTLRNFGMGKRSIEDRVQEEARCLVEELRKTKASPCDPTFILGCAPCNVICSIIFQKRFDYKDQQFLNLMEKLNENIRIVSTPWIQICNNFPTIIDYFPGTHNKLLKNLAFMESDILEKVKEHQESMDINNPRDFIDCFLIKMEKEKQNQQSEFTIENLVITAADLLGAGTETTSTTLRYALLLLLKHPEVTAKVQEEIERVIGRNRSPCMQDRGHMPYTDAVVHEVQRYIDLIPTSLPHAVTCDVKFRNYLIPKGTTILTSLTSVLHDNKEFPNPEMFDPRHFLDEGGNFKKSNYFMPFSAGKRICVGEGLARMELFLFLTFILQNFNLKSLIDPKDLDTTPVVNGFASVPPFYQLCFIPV

In general, IC50 refers to the concentration that inhibits the measured activity by half. As usually defined, the AUC(0-inf) is total exposure, with the tail of the curve extrapolated. A higher AUC(0-inf) goes with more exposure. Broadly, the AUC(0-t) is the area under the concentration-time curve up to a stated or last time point. For orientation: clearance means the volume of plasma or blood freed of the substance per unit of time. The low end stands for inefficient removal, the high end for efficient removal. What is called half-life is the time needed for the level to fall by half in the phase considered. The low end stands for fast loss, the high end for slow loss. In general, Cmax refers to the maximum level reached in the sampled fluid or tissue. One may read the Tmax as the time at which the peak concentration occurs. With `COc1ccc(CNc2nc(N3CCC[C@H]3CO)ncc2C(=O)NCc2ccccn2)cc1Cl` [NHPPC, N-(2-pyridylmethyl)-2-hydroxiymethyl-1-pyrrolidinyl-4-(3-chloro-4-methoxy-benzylamino)-5-pyrimidine-carboxamide], the IC50 at CYP2D6 is above 100 µM; at CYP2C9, 21.9 µM; on CYP2C19 it was above 100 µM; at CYP1A2 it was above 100 µM; at CYP3A4 (CYP3A4 (midazolam based)) it was above 100 µM; on CYP3A4 (CYP3A4 (testosterone based)), above 100 µM. For the same compound, the AUC(0-inf) came out at 866 ± 201 ng·h/mL in series [1] (setting [2]) and 593 ± 137 ng·h/mL in series [1] (setting [3]). Besides, the AUC(0-t) in series [1] (setting [2]) came to 847 ± 195 ng·h/mL; in series [1] (setting [3]) it was 583 ± 135 ng·h/mL. In addition, the clearance in series [1] (setting [2]) is 19.8 mL/min/kg. The half-life in series [1] (setting [2]) was 4.55 ± 0.11 h; in series [1] (setting [3]) it was 4.02 ± 0.39 h. Moreover, the MRT inf in series [1] (setting [2]) worked out at 5.5 ± 0.36 h; in series [1] (setting [3]), 7.8 ± 0.79 h. Besides, in series [1] (male, Sprague-Dawley, plasma, IV 1 mg/kg, read-out: Vss), the Vd was 6.5 ± 1 L/kg. The same compound had a Cmax in series [1] (setting [3]) of 52.6 ± 12.9 ng/mL. Besides, the Tmax in series [1] (setting [3]) worked out at 6 h. In addition, the K10 was 0.15 ± 0.00 h⁻¹ in series [1] (IV 1 mg/kg) and 0.17 ± 0.02 h⁻¹ in series [1] (PO 2 mg/kg).
